Where a name gives a salt, the structure may show the parent alone.

A word on the EC50: it is the midpoint of the concentration-response curve. Read a low EC50 as an effect from little substance.

This experiment addresses T1, human-detived receptor TLR8 (Homo sapiens, UniProt Q9NR97).
T1 construct: host or cells: HEK-Blue hTLR8 cells (HEK293-derived reporter line)
T1 sequence (Q9NR97 27-1041): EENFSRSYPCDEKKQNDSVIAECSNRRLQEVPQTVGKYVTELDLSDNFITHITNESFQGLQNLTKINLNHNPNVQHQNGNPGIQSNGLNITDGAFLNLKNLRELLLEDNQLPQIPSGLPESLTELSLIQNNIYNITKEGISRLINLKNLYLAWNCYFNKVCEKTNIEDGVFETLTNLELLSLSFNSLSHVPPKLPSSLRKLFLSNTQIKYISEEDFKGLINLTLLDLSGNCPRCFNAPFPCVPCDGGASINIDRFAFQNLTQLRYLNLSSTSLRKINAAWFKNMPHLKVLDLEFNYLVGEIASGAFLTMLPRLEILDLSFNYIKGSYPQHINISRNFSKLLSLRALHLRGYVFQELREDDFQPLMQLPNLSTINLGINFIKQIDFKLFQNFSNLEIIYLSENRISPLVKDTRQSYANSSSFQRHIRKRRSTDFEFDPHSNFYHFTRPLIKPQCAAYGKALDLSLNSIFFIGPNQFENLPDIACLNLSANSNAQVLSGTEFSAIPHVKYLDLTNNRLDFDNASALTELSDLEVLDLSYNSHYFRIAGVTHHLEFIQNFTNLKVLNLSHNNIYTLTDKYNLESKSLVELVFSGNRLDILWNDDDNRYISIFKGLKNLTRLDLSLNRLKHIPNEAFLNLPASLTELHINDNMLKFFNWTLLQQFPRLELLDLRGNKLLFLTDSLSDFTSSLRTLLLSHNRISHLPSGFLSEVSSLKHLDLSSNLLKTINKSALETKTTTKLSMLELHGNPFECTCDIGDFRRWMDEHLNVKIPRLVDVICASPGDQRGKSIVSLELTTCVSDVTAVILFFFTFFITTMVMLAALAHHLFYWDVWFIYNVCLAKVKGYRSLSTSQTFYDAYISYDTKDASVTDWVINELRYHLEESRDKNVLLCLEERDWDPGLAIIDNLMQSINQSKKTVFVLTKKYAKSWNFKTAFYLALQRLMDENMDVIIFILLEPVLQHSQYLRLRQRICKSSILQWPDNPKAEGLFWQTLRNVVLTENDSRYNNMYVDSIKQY
Description: Assay on agonistic activity for human-detived receptor TLR8 (HEK-Blue hTLR8 cells, HEK-Blue Detection Medium). The settings on record: 16 h incubation, absorbance at 620 nm. It is filed as cell-based. How it is done:
The assay on the agonistic activity for human-detived receptor TLR7 was performed as that in Test Example 1; • the method for assaying the agonistic activity for the human-detived receptor TLR8 was as follows: HEK-Blue™ hTLR8 cells (InvivoGen, hkb-htlr8) were cultured in a DMEM complete medium (Gibco, 11965-092) containing 10% FBS (Invitrogen, 10099-141c), 1% P/S (Invitrogen, 15140-122), 10 μg/mL Blasticidin (InvivoGen, R210-01), 100 μg/mL Zeocin (InvivoGen, ant-zn), and 100 μg/mL Normocin (InvivoGen, Ant-nr-2). The cells were cultured in an incubator at 37° C. with 5% CO2. When HEK-Blue™ hTLR8 cells reached a growth density of 70%-80%, cell passage was needed.
The agonistic activity for the human-detived receptor TLR8 by HEK-Blue™ hTLR8 cells was assayed by HEK-Blue™ Detection Medium (InvivoGen, hb-det3). First, a bag of HEK-Blue™ Detection Medium powder was completely dissolved, and then filtered through a 0.22 μm filter. Antibiotics were then added until the final concentration was 1% P/S and 100 μg/mL Normocin. HEK-Blue™ Detection Medium was pre-heated to 37° C. in advance on the day of the assay on the activity for the TLR8 receptor, and the temperature was always maintained at 37° C.
The compound powder was dissolved in 100% DMSO (Sigma, D8418-1L) to obtain a 10 mM stock solution, and the compound was completely dissolved by shaking with an oscillator for later use.
The cell culture medium was removed from HEK-Blue™ hTLR8 cells with a growth density of 70-80%. Then, the cells were washed 2-3 times with PBS (Gibco, 10010-031). The cells were digested and then pipetted with a DMEM cell culture medium to a single cell suspension, which was then centrifuged at 1000 rpm for 10 min to collect the cell pellet. […] The cells were counted, diluted to a plating density, and transferred to a 384-well cell culture plate (Corning, 3764). […] After incubation in an incubator at 37° C. for 16 h, the absorbance was read at 620 nm using a microplate reader (PerkinElmer, VICTOR Nivo).
The EC50 of the compound was calculated using the GraphPad Prism 8 software (GraphPad Software, USA). The reading of the negative control well (the well without the compound) was subtracted from the absorbance reading at 620 nm of the compound, and was divided by the ratio of the difference between the positive control (1 μM positive compound) and the negative control well, so that the percentage of the ratio of each well to the ratio of the positive control well (the well treated with 10 μM positive compound), i.e., the percentage of activity, was calculated. Finally, the sigmoidal dose-response (variable slope) curve between the percentage of activity and the concentration of the compound was calculated using the software GraphPad Prism to calculate the EC50 of the compound.
Compound `COc1nc2c(N)nc3ccccc3c2n1Cc1ccc(CN2CCCC2)cc1` [Comparative Example 1, 2-methoxy-1-((4-((pyrrolidin-1-yl)methyl)phenyl)methyl)-1H-imidazo[4,5-c]quinolin-4-amine trifluoroacetate, reference compound] displayed a concentration giving a half-maximal response (EC50) of more than 10 µM.
For `CSc1nc2c(N)nc3ccccc3c2n1Cc1ccc(CN2CCCC2)cc1` [Example 40, 2-(methylthio)-1-(4-(pyrrolidin-1-ylmethyl)benzyl)-1H-imidazo[4,5-c]quinoline-4-amine] the value was more than 10 µM; for `CSc1nc2c(N)nc3ccccc3c2n1Cc1ccc(N2CCN(C)CC2)nc1` [Example 199], more than 10 µM.
The same measure for `COc1cc(CN(C)C)ccc1Cn1c(SC)nc2c(N)nc3ccccc3c21` [Example 240]: more than 10 µM.

Source of the values: patent US20240150346A1, “CLASS OF HETEROAROMATIC COMPOUND, PREPARATION METHOD THEREFOR AND USE THEREOF” (INNOVSTONE THERAPEUTICS LIMITED, priority 2021, published 2024).
